Results from patent US6841548B2, “Pharmaceutical preparations containing estra-1,3,5(10)-triene derivatives” (Schering AG, priority 1994, dated 2005).

Columns and labels:
[1] = tested on: ovariectomated rats; test: Oral estrogenic effects: uterus weights in ovariectomated rats; assay type: in vivo, rat
Source text: (§1) The laboratory animals, adult female rats (breeder: HSD/WIN:WU) were ovariectomated on day 14. Treatment started two weeks later by a single oral application per day of the respective test substance. The dosages given for esters refer to the steroid portion of the substances. The tests were made in three groups (A, B, C) at various points in time. This is why there is a deviation in control group values. The tests of series A, B, and C can therefore be compared among each other if the values for the respective control groups are taken into account.
(§2) The procedure of allocating animals to groups was randomized. The experiment was carried out as a block test. The animals were weighed at the beginning and at the end of the experiment.
(§3) The start of treatment was defined as day 1 (=d1), treatment was finished on day 7 (=d7); the animals were killed on day 8, various organs (uteri, adrenal glands, liver) were removed, weighed and deep-frozen (−196° C.) for further examination.

[2] = tested on: ovariectomated rats; test: Oral estrogenic effects: weights of adrenal glands in ovariectomated rats; assay type: in vivo, rat
Source text: as §1, §2, §3

[3] = tested on: ovariectomated rats; test: Oral estrogen treatment: serum IGF1 (somatomedin C), RIA; assay type: in vivo, rat; parameters: unit not given here; conditions: Experiment A
Source text: as §1, §2, §3
(§4) Blood was taken from the retrobulbar plexus under ether anaesthesia prior to treatment (d0), and on (d4) and (d8). IGF1, angiotensin I, cholesterol and HDL cholesterol were determined in the serum obtained.
IGF1: RIA by bioMérieux Co.;

[4] = tested on: ovariectomated rats; test: Hepatic parameters: serum angiotensin I, modified RIA for renin activity; assay type: in vivo, rat; parameters: Angiotensin I: unit not given here; conditions: for Angiotensin I: Experiment A; for Influence on the angiotensin I level, summary in words: dose-action relationships on days 4 and 8
Source text: as §1, §2, §3, §4
angiotensin: modified RIA for renin activity by Sorin Co.

[5] = tested on: ovariectomated rats; test: Hepatic parameters: total cholesterol levels in serum, enzymatic test; assay type: in vivo, rat; conditions: for Total cholesterol levels (mean value ± standard deviation): Experiment A
Experimental: The laboratory animals, adult female rats (breeder: HSD/WIN:WU) were ovariectomated on day 14. Treatment started two weeks later by a single oral application per day of the respective test substance. The dosages given for esters refer to the steroid portion of the substances. The tests were made in three groups (A, B, C) at various points in time.
as §2, §3, §4
(§5) cholesterol/HDL: enzymatic tests, photometric determination, reagents by Dr Bruno Lange GmbH.

[6] = tested on: ovariectomated rats; test: Hepatic parameters: HDL cholesterol levels in serum, enzymatic test; assay type: in vivo, rat; conditions: Experiment A
Source text: as §1, §2, §3, §4, §5

[7] = Experiment B, 10 μg/animal/day p.o. d1-d7
[8] = Experiment C, 10 μg/animal/day p.o. d1-d7
[9] = Experiment A, 0.1 μg/animal/day p.o. d1-d7
[10] = Experiment A, 1 μg/animal/day p.o. d1-d7
[11] = Experiment A, 10 μg/animal/day p.o. d1-d7
[12] = Experiment A, 100 μg/animal/day p.o. d1-d7
[13] = 100 μg/animal/day p.o. d1-d7, d 0 (prior to treatment)
[14] = 100 μg/animal/day p.o. d1-d7, d 4
[15] = 100 μg/animal/day p.o. d1-d7, d 8
[16] = day 4, 0.1 μg/animal/day p.o. d1-d7
[17] = day 4, 1 μg/animal/day p.o. d1-d7
[18] = day 4, 10 μg/animal/day p.o. d1-d7
[19] = day 4, 100 μg/animal/day p.o. d1-d7
[20] = day 8, 0.1 μg/animal/day p.o. d1-d7
[21] = day 8, 1 μg/animal/day p.o. d1-d7
[22] = day 8, 10 μg/animal/day p.o. d1-d7
[23] = day 8, 100 μg/animal/day p.o. d1-d7

## C#CC1(O)CCC2C3CCc4cc(OS(=O)(=O)N5CCCC5)ccc4C3CCC21C (stereo not drawn) [J 272, 17β-Hydroxy-19-nor-17α-pregna-1,3,5(10)-trien-20-in-3-yl N,N-pyrrolidinosulfonate]
[1]; [7]
  Uterus weights (mean value): 620.7 mg
[2]; [7]
  Weights of adrenal glands (mean value): 57.5 mg

## C#CC1(O)CCC2C3CCc4cc(OS(=O)(=O)N(C)C)ccc4C3CCC21C (stereo not drawn) [J 665, 17β-Hydroxy-19-nor-17α-pregna-1,3,5(10)-trien-20-in-3-yl N,N-dimethyl-sulfamate]
[1]; [7]
  Uterus weights (mean value): 639.48 mg
[2]; [7]
  Weights of adrenal glands (mean value): 58.0 mg

## CCN(CC)S(=O)(=O)Oc1ccc2c(c1)CC[C@@H]1[C@@H]2CC[C@]2(C)C(=O)CC[C@@H]12 [J 804, Estra-1,3,5(10)-trien-17-on-3-yl N,N-diethyl-sulfamate]
[1]; [7]
  Uterus weights (mean value): 166.0 mg
[2]; [7]
  Weights of adrenal glands (mean value): 53.9 mg

## CCN(CC)S(=O)(=O)Oc1ccc2c(c1)CC[C@@H]1[C@@H]2CC[C@]2(C)[C@@H](O)[C@H](O)C[C@@H]12 [J 984, 16α,17β-Dihydroxy-estra-1,3,5(10)-trien-3-yl N,N-diethyl-sulfamate]
[1]; [8]
  Uterus weights (mean value): 245.63 mg
[2]; [8]
  Weights of adrenal glands (mean value): 59.3 mg
other
  melting point: 121 to 124 °C

## CN(C)S(=O)(=O)Oc1ccc2c(c1)CC[C@@H]1[C@@H]2CC[C@]2(C)[C@@H](O)C[C@@H]3C[C@]312 [J 982, 17β-Hydroxy-14α,15α-methylen-estra-1,3,5(10)-trien-3-yl N,N-dimethyl-sulfamate]
[1]; [7]
  Uterus weights (mean value): 193.4 mg
[2]; [7]
  Weights of adrenal glands (mean value): 55.3 mg

## C[C@]12CC[C@@H]3c4ccc(O)cc4CC[C@H]3[C@@H]1CC[C@@H]2O [Example E2, estradiol]
[1]; [9]
  Uterus weights (mean value): 123.3 mg
[1]; [10]
  Uterus weights (mean value): 128.9 mg
[1]; [11]
  Uterus weights (mean value): 130.7 mg
[1]; [12]
  Uterus weights (mean value): 285.4 mg
[1]; [7]
  Uterus weights (mean value): 182.3 mg
[2]; [9]
  Weights of adrenal glands (mean value): 49.3 mg
[2]; [10]
  Weights of adrenal glands (mean value): 57.9 mg
[2]; [11]
  Weights of adrenal glands (mean value): 61.6 mg
[2]; [12]
  Weights of adrenal glands (mean value): 54.4 mg
[2]; [7]
  Weights of adrenal glands (mean value): 54.4 mg
[3]; [13]
  IGF1 (= somatomedin C): 717.4 ± 80.8
[3]; [14]
  IGF1 (= somatomedin C): 623.6 ± 100.0
[3]; [15]
  IGF1 (= somatomedin C): 601.1 ± 108.8
[4]; [16]
  Angiotensin I: 376.2 ± 48.3
[4]; [17]
  Angiotensin I: 359.8 ± 53.4
[4]; [18]
  Angiotensin I: 412.8 ± 66.6
[4]; [19]
  Angiotensin I: 497.7 ± 69.0
[4]; [20]
  Angiotensin I: 449.5 ± 55.1
[4]; [21]
  Angiotensin I: 392.9 ± 32.0
[4]; [22]
  Angiotensin I: 335.5 ± 24.9
[4]; [23]
  Angiotensin I: 464.3 ± 16.7
[4]; at any dose throughout the experiment
  Effect on angiotensin I (AI) values, in words: no recognizable effect
[4]
  Influence on the angiotensin I level, summary in words: at best has marginal stimulating influence
[5]; all doses
  Effect on cholesterol levels in the blood (total and HDL), in words: did not reduce cholesterol levels in the blood
[6]; [16]
  HDL cholesterol levels (mean value ± standard deviation): 49.1 ± 7.8 mg/dL
[6]; [17]
  HDL cholesterol levels (mean value ± standard deviation): 50.9 ± 6.1 mg/dL
[6]; [18]
  HDL cholesterol levels (mean value ± standard deviation): 55.0 ± 6.9 mg/dL
[6]; [19]
  HDL cholesterol levels (mean value ± standard deviation): 43.7 ± 7.6 mg/dL
[6]; [20]
  HDL cholesterol levels (mean value ± standard deviation): 51.0 ± 4.6 mg/dL
[6]; [21]
  HDL cholesterol levels (mean value ± standard deviation): 52.3 ± 4.1 mg/dL
[6]; [22]
  HDL cholesterol levels (mean value ± standard deviation): 51.5 ± 3.9 mg/dL
[6]; [23]
  HDL cholesterol levels (mean value ± standard deviation): 46.0 ± 9.2 mg/dL

## C[C@]12CC[C@@H]3c4ccc(O)cc4CC[C@H]3[C@@H]1CCC2=O [Example E1, estrone]
[1]; [7]
  Uterus weights (mean value): 170.63 mg
[2]; [7]
  Weights of adrenal glands (mean value): 49.8 mg

## CCN(CC)S(=O)(=O)Oc1ccc2c(c1)CC[C@@H]1[C@@H]2CC[C@]2(C)[C@@H](O)C[C@@H]3C[C@]312 [J 983, 17β-Hydroxy-14α,15α-methylen-estra-1,3,5(10)-trien-3-yl N,N-diethyl-sulfamate]
[1]; [7]
  Uterus weights (mean value): 348.6 mg
[2]; [7]
  Weights of adrenal glands (mean value): 53.9 mg

## CCN(CC)S(=O)(=O)Oc1ccc2c(c1)CC[C@@H]1[C@@H]2CC[C@]2(C)[C@@H](O)CC[C@@H]12 [J 981, 17β-Hydroxy-estra-1,3,5(10)-trien-3-yl N,N-diethyl-sulfamate]
[1]; [7]
  Uterus weights (mean value): 225.34 mg
[2]; [7]
  Weights of adrenal glands (mean value): 50.5 mg
other
  melting point: 175 to 176 °C

## C#C[C@]1(O)CC[C@H]2[C@@H]3CCc4cc(OS(=O)(=O)N(CC)CC)ccc4[C@H]3CC[C@@]21C [J 271, 17β-Hydroxy-19-nor-17α-pregna-1,3,5(10)-triene-20-in-3-yl N,N-diethyl-sulfamate]
[1]; [9]
  Uterus weights (mean value): 144.2 mg
[1]; [10]
  Uterus weights (mean value): 289.9 mg
[1]; [11]
  Uterus weights (mean value): 605.1 mg
[1]; [12]
  Uterus weights (mean value): 563.6 mg
[1]; [7]
  Uterus weights (mean value): 540.8 mg
[1]; oral
  Oral dose at which the effect on uterus growth has reached a plateau: 0.01 mg/animal/day
[1]; oral, versus EE and estradiol
  Effects on uterus growth, comparison in words: clear superiority to EE and great superiority to estradiol
[2]; [9]
  Weights of adrenal glands (mean value): 57.1 mg
[2]; [10]
  Weights of adrenal glands (mean value): 57.4 mg
[2]; [11]
  Weights of adrenal glands (mean value): 63.1 mg
[2]; [12]
  Weights of adrenal glands (mean value): 66.5 mg
[2]; [7]
  Weights of adrenal glands (mean value): 57.9 mg
[3]; [13]
  IGF1 (= somatomedin C): 826.4 ± 96.7
[3]; [14]
  IGF1 (= somatomedin C): 593.7 ± 57.0
[3]; [15]
  IGF1 (= somatomedin C): 351.5 ± 32.6
[4]; [16]
  Angiotensin I: 380.8 ± 35.8
[4]; [17]
  Angiotensin I: 383.8 ± 47.1
[4]; [18]
  Angiotensin I: 435.2 ± 53.8
[4]; [19]
  Angiotensin I: 734.0 ± 75.7
[4]; [20]
  Angiotensin I: 462.2 ± 71.3
[4]; [21]
  Angiotensin I: 425.9 ± 43.9
[4]; [22]
  Angiotensin I: 373.4 ± 42.3
[4]; [23]
  Angiotensin I: 668.2 ± 68.6
[4]; dose of 10 μg/day
  Effect on angiotensin I (AI) values, in words: no clear effect on AI
[4]; dose of 100 μg/day
  Effect on angiotensin I (AI) values, in words: increases in AI values but these are significantly lower than those observed under the influence of EE or J 824
[4]
  Influence on the angiotensin I level, summary in words: clearly below those for EE
[5]; [16]
  Total cholesterol levels (mean value ± standard deviation): 96.0 ± 15.0 mg/dL
[5]; [17]
  Total cholesterol levels (mean value ± standard deviation): 108.5 ± 10.3 mg/dL
[5]; [18]
  Total cholesterol levels (mean value ± standard deviation): 92.4 ± 12.1 mg/dL
[5]; [19]
  Total cholesterol levels (mean value ± standard deviation): 24.5 ± 14.4 mg/dL
[5]; [20]
  Total cholesterol levels (mean value ± standard deviation): 91.1 ± 18.3 mg/dL
[5]; [21]
  Total cholesterol levels (mean value ± standard deviation): 101.4 ± 6.3 mg/dL
[5]; [22]
  Total cholesterol levels (mean value ± standard deviation): 81.9 ± 12.6 mg/dL
[5]; [23]
  Total cholesterol levels (mean value ± standard deviation): 18.6 ± 8.3 mg/dL
[5]; highest dose, versus EE
  Drop in total and HDL cholesterol levels in the blood, in words: still recognizably lower than that caused by EE
[5]; up to 10 μg
  Effect on cholesterol levels in the blood (total and HDL), in words: did not reduce cholesterol levels in the blood
[6]; [16]
  HDL cholesterol levels (mean value ± standard deviation): 57.6 ± 6.5 mg/dL
[6]; [17]
  HDL cholesterol levels (mean value ± standard deviation): 57.1 ± 7.1 mg/dL
[6]; [18]
  HDL cholesterol levels (mean value ± standard deviation): 54.6 ± 5.7 mg/dL
[6]; [19]
  HDL cholesterol levels (mean value ± standard deviation): 13.2 ± 14.0 mg/dL
[6]; [20]
  HDL cholesterol levels (mean value ± standard deviation): 57.3 ± 6.0 mg/dL
[6]; [21]
  HDL cholesterol levels (mean value ± standard deviation): 59.6 ± 6.8 mg/dL
[6]; [22]
  HDL cholesterol levels (mean value ± standard deviation): 49.9 ± 6.0 mg/dL
[6]; [23]
  HDL cholesterol levels (mean value ± standard deviation): 10.7 ± 8.2 mg/dL

## C[C@]12CC[C@@H]3c4ccc(O)cc4CC[C@H]3[C@@H]1C[C@@H](O)[C@@H]2O [Example E3, estratriol]
[1]; [8]
  Uterus weights (mean value): 301.94 mg
[2]; [8]
  Weights of adrenal glands (mean value): 52.2 mg

## CN(C)S(=O)(=O)Oc1ccc2c(c1)CC[C@@H]1[C@@H]2CC[C@]2(C)[C@@H](O)[C@H](O)C[C@@H]12 [J 989, 16α,17β-Dihydroxy-estra-1,3,5(10)-trien-3-yl N,N-dimethyl-sulfamate]
[1]; [8]
  Uterus weights (mean value): 182.79 mg
[2]; [8]
  Weights of adrenal glands (mean value): 52.8 mg
other
  melting point: 180 to 181 °C
